Assay results: patent US5607691A, “Compositions and methods for enhanced drug delivery” (priority 1995, dated 1997)
Counter-ions that a name gives are not always drawn.

Assay: not given
Settings: given intravenously or intramuscularly; cited from earlier work

| Compound | mean half-life |
| --- | --- |
| O=C1Nc2ccc(Cl)cc2C(c2ccccc2Cl)=NC1O (centres unmarked) [lorazepam, 7-chloro-5-(o-chlorophenyl)-1,3-dihydro-3-hydroxy-2H-1,4-benzodiazepin-2-one] | about 16 hours |

Assay: not given
Settings: in vivo; cited from earlier work

| Compound | absorption |
| --- | --- |
| CCn1cc(C(=O)O)c(=O)c2ccc(C)nc21 [Nalidixic acid] | rapidly absorbed from the gastrointestinal tract |
| C[C@H]1O[C@@H](O[C@H]2[C@@H](O)C[C@H](O[C@H]3[C@@H](O)C[C@H](O[C@H]4CC[C@@]5(C)[C@H](CC[C@@H]6[C@@H]5CC[C@]5(C)[C@@H](C7=CC(=O)OC7)CC[C@]65O)C4)O[C@@H]3C)O[C@@H]2C)C[C@H](O)[C@@H]1O [digitoxin, 3β,5β-3-[(O-2,6-dideoxy-β-D-ribo-hexopyranosyl(1→4)-O-2,6-dideoxy-β-D-ribo-hexopyranosyl-(1→4)-2,6-dideoxy-β-D-ribohexopyranosyl)oxy]-14-hydroxycard-20(22)-enolide] | completely absorbed |

Assay: in vitro
Assay type: in vitro ADME, human
Settings: Table 5; human serum, 37° C.
In short: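 Complex from 6 mM ethanol stock added to freshly defrosted human serum at 37° C. Aliquots quenched in 2% zinc sulfate, centrifuged, and supernatant analysed by reversed-phase C8 HPLC for % remaining by peak area. Half-life from slope of ln % remaining vs time.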

| Compound | Serum Half-life |
| --- | --- |
| digitoxigenin-3-(O-acetyl-D,L-carnitine) ester, (D isomer), chloride salt | ~ 50 min |
| digoxin-12-{N-[6-(N',N',N'-trimethylamino)hexanoyloxymethyl]glycinoyloxymethyl} carbonate-3"',4"'-cyclic carbonate, bromide salt | 7 min |

Same assay, conditions: human, serum

| Compound | Serum Half-life |
| --- | --- |
| CC(=O)[C@H]1CC[C@H]2[C@@H]3CC=C4C=C(OC(=O)C[N+](C)(C)C)CC[C@]4(C)[C@H]3CC[C@]12C.[Br-] [progesterone-3-betainoyl enol ester, bromide salt] | 1.6 min |

Same assay, conditions: human, serum, Table 5; human serum, 37° C.; read-out: Serum Half-life (converted)

| Compound | half-life |
| --- | --- |
| CN(Cc1cnc2nc(N)nc(N)c2n1)c1ccc(C(=O)N[C@@H](CCC(=O)OCOC(=O)CCC[N+](C)(C)C)C(=O)OCOC(=O)CCC[N+](C)(C)C)cc1 [methotrexate-bis-(4-trimethylammoniobutyroyloxymethyl ester), diiodide salt] | 108 min |
| CN(Cc1cnc2nc(N)nc(N)c2n1)c1ccc(C(=O)N[C@@H](CCC(=O)OCC[N+](C)(C)C)C(=O)OCC[N+](C)(C)C)cc1 [methotrexate-bis-choline ester, dibromide salt] | 840 min |
| CCn1cc(C(=O)OCOC(=O)CCCCC[N+](C)(C)C)c(=O)c2ccc(C)nc21 [nalidixic acid 6-(N,N,N-trimethylamino)-hexanoyloxymethyl ester, iodide salt] | 4.8 min |
| CCn1cc(C(=O)OCC[N+](C)(C)C)c(=O)c2ccc(C)nc21 [nalidixic acid, choline ester, bromide salt] | 66 min |
| CCn1cc(C(=O)OCOC(=O)OCC[N+](C)(C)C)c(=O)c2ccc(C)nc21 [nalidixic acid, cholinecarbonato methyl ester, iodide salt] | 1.27 min |
| O=C(OCCc1ccc([N+](=O)[O-])cc1)c1cccnc1 [p-nitrophenylethyl alcohol nicotinate ester] | 0.433 min |
| C[n+]1cccc(C(=O)OCCc2ccc([N+](=O)[O-])cc2)c1 [p-nitrophenylethyl alcohol trigonelline ester] | 28 min |
| CC(=O)[C@H]1CC[C@H]2[C@@H]3CC=C4C=C(OC(=O)CCC[N+](C)(C)C)CC[C@]4(C)[C@H]3CC[C@]12C [progesterone-3-(4-N,N,N-trimethylammoniobutyrate) enol ester, bromide salt] | 180 min |
| CC(=O)O[C@H](CC(=O)OC[C@H](NC(=O)OCc1ccccc1)C(=O)OCc1ccccc1)C[N+](C)(C)C [serine, L-isomer, HO-(O-acetyl-L-carnitine ester) N-CBZ, benzyl ester] | 21 min |
| C[n+]1cccc(C(=O)OC[C@H](NC(=O)OCc2ccccc2)C(=O)OCc2ccccc2)c1 [serine, L-isomer, HO-trigonellate ester, N-CBZ, benzyl ester] | 5 min |
| C[C@]12CC[C@H]3[C@@H](CCC4=CC(=O)CC[C@@]43C)[C@@H]1CC[C@@H]2OC(=O)OCOC(=O)CCCCC[N+](C)(C)C [testosterone-17-(6-trimethylammoniohexanoyloxymethyl) carbonate, bromide salt] | 19 min |
| CCOC(=O)C[C@H](C[N+](C)(C)C)OC(=O)O[C@H]1CC[C@H]2[C@@H]3CCC4=CC(=O)CC[C@]4(C)[C@H]3CC[C@]12C [testosterone-17-(L-carnitineethyl ester) carbonate, iodide salt] | 49 min |
| CC(=O)O[C@H](CC(=O)O[C@H]1CC[C@H]2[C@@H]3CCC4=CC(=O)CC[C@]4(C)[C@H]3CC[C@]12C)C[N+](C)(C)C [testosterone-17-(O-acetyl-L-carnitinate), chloride salt] | 5760 min |
| CCCCCCCCCCCCCCCC(=O)O[C@H](CC(=O)O[C@H]1CC[C@H]2[C@@H]3CCC4=CC(=O)CC[C@]4(C)[C@H]3CC[C@]12C)C[N+](C)(C)C [testosterone-17-(O-palmityl-L-carnitinate), chloride salt] | 7060 min |
| C[C@]12CC[C@H]3[C@@H](CCC4=CC(=O)CC[C@@]43C)[C@@H]1CC[C@@H]2OC(=O)OCOC(=O)C[N+](C)(C)C [testosterone-17-betainoyloxymethyl carbonate, iodide salt] | 0.633 min |
| C[C@]12CC[C@H]3[C@@H](CCC4=CC(=O)CC[C@@]43C)[C@@H]1CC[C@@H]2OC(=O)OCOC(=O)COC(=O)C[N+](C)(C)C [testosterone-17-betainoyloxymethylcarbonyloxymethyl carbonate, iodide salt] | 8.5 min |
| C[C@]12CC[C@H]3[C@@H](CCC4=CC(=O)CC[C@@]43C)[C@@H]1CC[C@@H]2OC(=O)OCC[N+](C)(C)C [testosterone-17-choline carbonate, bromide salt] | 29 min |
| Cn1c(=O)c2c(ncn2COC(=O)C[N+](C)(C)C)n(C)c1=O [theophylline-7-(N,N,N,-trimethylglycyloxymethyl), iodide salt] | 0.5 min |
| CN(C)CC(=O)OCn1cnc2c1c(=O)n(C)c(=O)n2C [theophylline-7-(N,N-dimethylglycyloxymethyl] | 1680 min |
| Cn1c(=O)c2c(ncn2COC(=O)CCC[N+](C)(C)C)n(C)c1=O [theophylline-7-[4-(N,N,N-trimethylamino)-butyroyloxymethyl], bromide salt] | 144 min |
| CC(=O)O[C@H](CC(=O)O[C@H](C)[C@H](NC(=O)OCc1ccccc1)C(=O)OCc1ccccc1)C[N+](C)(C)C [threonine, L-isomer, HO-(O-acetyl-L-carnitine ester), N-CBZ, benzyl ester] | 40 min |
| C[C@@H](OC(=O)c1ccc[n+](C)c1)[C@H](NC(=O)OCc1ccccc1)C(=O)OCc1ccccc1 [threonine, L-isomer, HO-trigonellate ester, N-CBZ benzyl ester] | 40 min |

Assay: not given
Settings: man, incomplete and variable, averaging; cited from earlier work

| Compound | absorption of an oral dose |
| --- | --- |
| O.Sc1ncnc2nc[nH]c12 [mercaptopurine, 1,7-dihydro-6H-purine-6-thione monohydrate] | approximately 50 % of the administered dose |

Assay: not given
Settings: in animals; cited from earlier work

| Compound | central nervous system activity |
| --- | --- |
| O=C1Nc2ccc(Cl)cc2C(c2ccccc2Cl)=NC1O[C@@H]1O[C@H](C(=O)O)[C@@H](O)[C@H](O)[C@H]1O (some centres unmarked) [lorazepam glucuronide] | no demonstrable central nervous system activity |

Assay: not given
Settings: in vivo; cited from earlier work
Remark: another data set of the same source

| Compound | passage across blood-brain barrier and placenta |
| --- | --- |
| O=c1[nH]cc(F)c(=O)[nH]1 [fluorouracil, 5-fluoro-2,4 (1H,3H)-pyrimidinedione] | diffuses readily across the blood-brain barrier |

Assay: not given
Settings: human or mouse skin; cited from earlier work

| Compound | iontophoretic transport across skin |
| --- | --- |
| Cytochrome c | can be iontophoretically transported readily across human or mouse skin |
